The results in this text go back to patent US7718377B2, “Insulin resistance curative and method of screening the same” (Kyoto Pharmaceutical Industries, Ltd., priority 2003, dated 2010).

A value given as a limit tells only on which side of the number the result lay.

One series has as its target T1, human PTP-1B (1-321) (Homo sapiens, UniProt P18031).
T1 construct: ID No.2; made in house; host or cells: Escherichia coli BL21 DE3 (plasmid pET-hPTP1B (1-321), vector pET-11c)
T1 sequence (P18031 1-321): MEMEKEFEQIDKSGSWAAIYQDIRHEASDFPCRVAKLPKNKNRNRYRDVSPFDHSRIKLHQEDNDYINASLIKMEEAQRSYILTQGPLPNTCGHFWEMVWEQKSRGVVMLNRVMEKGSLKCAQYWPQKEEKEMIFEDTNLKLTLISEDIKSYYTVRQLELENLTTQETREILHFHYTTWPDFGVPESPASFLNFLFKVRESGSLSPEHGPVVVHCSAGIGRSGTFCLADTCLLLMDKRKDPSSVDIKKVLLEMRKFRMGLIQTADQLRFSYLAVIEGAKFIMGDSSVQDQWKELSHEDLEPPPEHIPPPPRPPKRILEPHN
In words: Determination of PTP-1B enzyme inhibitory activity (phosphopeptide substrate, malachite green). The series is classed as biochemical. The following applies: each compound 100 μM; peptide substrate, 37° C., 10 min. The text has this:
As the substrates for PTP-1B enzyme reaction, synthetic peptides consisting of the following amino acid sequence: • Thr-Arg-Asp-Ile-Tyr (PO4)-Glu-Thr-Asp-Tyr (PO4)-Tyr (PO4)-Arg-Lys (SEQ; NO. 5), wherein 3 tyrosines had been all phosphorylated, were used (synthesis committed to Shimadzu Scientific Research Inc. (Chiyoda-ku, Tokyo)). [According to the amino acid numbers based on the report of Ullrich et al. (Nature, vol. 313, pages 756-761, 1985), this amino acid sequence corresponds to Nos. 1142-1153 of insulin receptor, and corresponds to Nos. 1169-1180 in the amino acid sequence of the insulin receptor precursor registered in Genbank No. X02160.]
This peptide substrate and a PTP-1B enzyme were reacted and the enzyme activity was determined by quantitation of inorganic phosphoric acid released from the substrate by the reaction. The decreased enzyme activity in the presence of a test compound during the enzyme reaction was taken as the enzyme inhibitory activity. Specifically, the following method was performed.
A peptide substrate (synthesis committed to Shimadzu Scientific Research Inc.) was dissolved in a buffer (20 mM imidazole (pH 7.0), 50 mM NaCl, 5 mM DTT and 2.5 mM EDTA) to 300 μM, and cryopreserved.
The PTP-1B solution obtained earlier was diluted with a buffer (20 mM imidazole (pH 7.0), 50 mM NaCl, 5 mM DTT, 2.5 mM EDTA, and 0.05% Nonidet P-40) to 200 ng/ml.
A 96 well microtiter plate [Costar 3695 (half area) Corning] was used and a buffer [39 μl, 20 mM imidazole (pH 7.0), 50 mM NaCl, 5 mM DTT, 2.5 mM EDTA], a PTP-1B enzyme solution (5 μl), and a solution (5 mM, 1 μl) of a test compound in dimethylsulfoxide (DMSO) were added to each well. As a control, solvent (DMSO, 1 μl) was added instead of the DMSO solution of test compound. After preincubation at 37° C. for about 10 min, a peptide substrate solution (300 μM, […]) was added and the mixture was incubated at 37° C. for 10 min.
For quantitation of released inorganic phosphoric acid, malachite green solution (90 μl, manufactured by BIOMOL Research Laboratories, Inc.) was added to each well, and the mixture was left standing at room temperature for about 10 min and the absorbance at 650 nm was measured with a microplate reader. Linearity was mostly observed between the absorbance and the phosphoric acid concentration generally within the absorbance range of from 0.05 to 0.6 (phosphoric acid from about […]) under these conditions.
The PTP-1B inhibitory activity of the test compound was obtained by the following calculation formula. Inhibitory activity (%)=[…]

The target of series [1] is T2, GAL4-PPARγ chimeric receptor (human PPARγ ligand binding site) (Homo sapiens, UniProt P37231).
T2 construct: a GAL4-PPARγ chimeric receptor containing amino acid Nos. 1-147 of yeast transcription factor GAL4 on the amino terminal and Nos. 175-475; expressed in transfected cells; host or cells: HEK293 (plasmid pM-PPARγ co-transfected with reporter pFR-Luc)
T2 sequence (P37231 with tags, fused parts or gaps): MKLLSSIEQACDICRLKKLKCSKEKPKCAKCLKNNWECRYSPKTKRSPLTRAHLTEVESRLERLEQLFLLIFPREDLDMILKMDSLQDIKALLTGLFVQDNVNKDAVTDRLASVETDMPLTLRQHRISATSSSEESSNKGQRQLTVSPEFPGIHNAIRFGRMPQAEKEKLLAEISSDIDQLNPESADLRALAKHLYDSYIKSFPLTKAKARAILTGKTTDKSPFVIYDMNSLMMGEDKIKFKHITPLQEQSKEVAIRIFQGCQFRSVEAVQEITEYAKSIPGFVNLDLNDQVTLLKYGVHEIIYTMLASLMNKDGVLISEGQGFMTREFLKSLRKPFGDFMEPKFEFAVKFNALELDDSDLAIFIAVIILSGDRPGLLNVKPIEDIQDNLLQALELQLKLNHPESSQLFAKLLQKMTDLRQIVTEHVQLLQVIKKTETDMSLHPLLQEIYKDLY
Kind of series: Determination of PPARγ activation ability (GAL4-PPARγ luciferase reporter assay in HEK293 cells). The series is classed as cell-based. The following applies: each compound 1 μM; amount of luminescence relative to control; value greater than 1 = activation ability. (In general: In a reporter assay the amount or activity of a reporter protein is the signal.)
Method: As a method for determining the ability of a compound to activate PPARγ (hereinafter PPARγ activation ability), a test by a reporter assay was performed with reference to the report of Kliewer et al. (Journal of Biological Chemistry, 1995, vol. 270(22), p. 12953-12956).
With reference to the report of Kliewer, a gene expressing a GAL4-PPARγ receptor, wherein human PPARγ ligand binding site (corresponding to about 300 amino acids on carboxy terminal) is bound with a DNA binding site (corresponding to 147 amino acids on amino terminal region) of yeast transcription factor GAL4, was prepared.
The plasmid pM-PPARγ obtained earlier, and plasmid pFR-Luc purchased from [sequence] CLONING SYSTEMS were each dissolved in desalted water to a concentration of 1 mg/1 ml.
A human fetal kidney-derived cell line HEK293 (American Type Culture Collection CRL-1573) was sown in a 75 cm^2 culture flask, and cultured in Dulbecco's Modified Eagle medium containing 10% fetal bovine serum (hereinafter a medium) under the conditions of 37° C., 5% CO2 until it reached nearly 80% confluent.
Using 7.5 μg of plasmid pM-PPARγ and 7.5 μg of plasmid pFR-Luc, both per flask, as well as a FuGENE6 transfection reagent (manufactured by Rosch Diagnostics) the plasmids were transfected to HEK293 cells and cultured overnight.
The next day, the cells were treated with trypsin and recovered. A 96 well plate coated with poly-L-lysine (IWAKI poly-L-lysine coated 96 well plate, manufactured by ASAHI TECHNOGLASS) was prepared, the cells were sown at about 50,000 cells/well, 90 μl, using the medium and cultured overnight.
The test compound was dissolved in DMSO at a concentration of 10 mM. This was diluted 1,000-fold with the medium, and 10 μl therefrom was added to the well in which cells were growing. The treatment concentration in the cell was 1 μM. After the addition, the cells were cultured overnight.
The next day, the medium was removed, and the cells were washed with phosphate buffered saline containing 1 mM magnesium and 1 mM calcium chloride. PicaGene LT FR manufactured by Wako Pure Chemical Industries, Ltd. was diluted 2-fold with the same saline and the solution was added to each well by 200 μl. After standing the mixture for about 1 hr, it was stirred and 180 μl thereof was taken from each well and placed in a white 96 well plate (OptiPlate 96, manufactured by Packard), applied to TopCount (manufactured by Packard) and the amount of luminescence of each well was measured for 6 seconds.
The PPARγ activation ability of the test compound was determined by the following calculation formula: PPARγ activation ability=(amount of luminescence [in the presence of each compound (1 μM)]}/[amount of luminescence (control)]

Another series has as its system male Zucker Fatty rats. Kind of series: Expression suppressive action on edema and the like: 2-week oral administration, insulin and blood cell parameters. In kind it is in vivo, rat. From the text:
For the test, male Zucker Fatty rats (6-week-old, Japan SLC) were used. During the acclimation period for 1 week and test period, feed (FR-2 (Funabashi Farm)) and water were freely given.
Blood was taken from the tail vain using a heparin-coated hematocrit tube and an EDTA-added hematocrit tube, and a part thereof was preserved as a whole blood and the rest was centrifuged and plasma was collected and subjected to the measurement of biochemical parameter (insulin). For insulin measurement, a rat Insulin RIA kit (US Linco) was used, and all the samples were collectively measured after the completion of administration. The whole blood sample was subjected to the measurement of blood cell parameters (erythrocyte concentration, hemoglobin concentration) using an automatic blood cell measurement apparatus (KX-21N, Sysmex Corporation).
At the beginning of the test, blood was taken from all the rats, and randomly grouped to make the parameters (body weight, erythrocyte, hemoglobin and the like) almost the same. […] The start of the administration was day 0, and the animals were fasted for about 16 hr from the evening of day 13. Blood was taken and measured for each parameter.

Regarding `CC(C)(C)N.CC=CC=CC(=O)N1Cc2cc(OCCc3nc(/C=C/C4CCCCC4)oc3C)ccc2C[C@H]1C(=O)O` (stereo in doubt) [Reference Example 40, 7-{2-[2-(trans-2-cyclohexylvinyl)-5-methyloxazol-4-yl]ethoxy}-2-(2,4-hexadienoyl)-1,2,3,4-tetrahydroisoquinoline-(3S)-carboxylic acid tert-butylamine Salt], at human PTP-1B (1-321), the “inhibitory activity (%)” value turned out to be 90%. The same compound registered a PPARγ activation ability in series [1] of 5.4.

On to `CC(C)(C)N.CC=CC=CC(=O)N1Cc2cc(OCCc3nc(/C=C/CCC(C)C)oc3C)ccc2C[C@H]1C(=O)O` (stereo in doubt) [Reference Example 30, 2-(2,4-hexadienoyl)-7-{2-[5-methyl-2-(5-methyl-trans-1-hexen-1-yl)oxazol-4-yl]ethoxy}-1,2,3,4-tetrahydroisoquinoline-(3S)-carboxylic acid tert-butylamine Salt], for which the “inhibitory activity (%)” value on human PTP-1B (1-321) was determined as 96%. The same compound yielded a PPARγ activation ability in series [1] of 6.2. Moreover, in the series with male Zucker Fatty rats (30 mg/kg, po, once-daily, 2 consecutive weeks, FIG. 1), the hemoglobin concentration result is listed as “somewhat lower than those of the control group, but maintained at a remarkably high level as compared to the rosiglitazone administration group”. The “insulin lowering action (blood insulin concentration)” value in the series with male Zucker Fatty rats (30 mg/kg, po, once-daily, 2 consecutive weeks, FIG. 2) is “equivalent to that of the rosiglitazone”. For the same compound, in the series on male Zucker Fatty rats (30 mg/kg, po, once-daily, 2 consecutive weeks, FIG. 3), the erythrocyte concentration entry is “somewhat lower than those of the control group, but maintained at a remarkably high level as compared to the rosiglitazone administration group”. In addition, the “blood dilution (decrease in the concentrations of hemoglobin and erythrocyte)” value in the series on male Zucker Fatty rats (compared with rosiglitazone administration group) is reported as “markedly suppressed”.

With `CC(C)(C)N.CCCCC=CC(=O)N1Cc2cc(OCCc3nc(/C=C/CC(C)C)oc3C)ccc2C[C@H]1C(=O)O` (stereo in doubt) [Reference Example 24, 2-(2-heptenoyl)-7-{2-[5-methyl-2-(4-methyl-trans-1-penten-1-yl)oxazol-4-yl]ethoxy}-1,2,3,4-tetrahydroisoquinoline-(3S)-carboxylic acid tert-butylamine Salt], the “inhibitory activity (%)” value on human PTP-1B (1-321) is on record as 92%. In addition, the PPARγ activation ability in series [1] is on record as 9.4.

Regarding `CC(C)(C)N.CC=CC=CC(=O)N1Cc2cc(OCCc3nc(/C(C)=C/CCC)oc3C)ccc2C[C@H]1C(=O)O` (stereo in doubt) [Reference Example 33, 2-(2,4-hexadienoyl)-7-{2-[5-methyl-2-(1-methyl-trans-1-penten-1-yl)oxazol-4-yl]ethoxy}-1,2,3,4-tetrahydroisoquinoline-(3S)-carboxylic acid tert-butylamine Salt], on human PTP-1B (1-321), the “inhibitory activity (%)” value worked out at 92%. For the same compound, the PPARγ activation ability in series [1] worked out at 6.5.

As for `CC(C)(C)N.CC=CC=CC(=O)N1Cc2cc(OCCc3nc(/C=C/CCCC)oc3C)ccc2C[C@H]1C(=O)O` (stereo in doubt) [Reference Example 27, 2-(2,4-hexadienoyl)-7-{2-[2-(trans-1-hexen-1-yl)-5-methyloxazol-4-yl]ethoxy}-1,2,3,4-tetrahydroisoquinoline-(3S)-carboxylic acid tert-butylamine Salt], the “inhibitory activity (%)” value at human PTP-1B (1-321) is recorded as 88%. Besides, the PPARγ activation ability in series [1] is on record as 5.9.

Turning to `CC(C)(C)N.CC=CC=CC(=O)N1Cc2cc(OCCc3nc(/C=C/CCCF)oc3C)ccc2C[C@H]1C(=O)O` (stereo in doubt) [Reference Example 66, 7-{2-[2-(5-fluoro-trans-1-penten-1-yl)-5-methyloxazol-4-yl]ethoxy}-2-(2,4-hexadienoyl)-1,2,3,4-tetrahydroisoquinoline-(3S)-carboxylic Acid tert-butylamine Salt], the “inhibitory activity (%)” value against human PTP-1B (1-321) is 80%. This compound returned a PPARγ activation ability in series [1] of 3.0.

Turning to `CC(C)(C)N.CC=CC=CC(=O)N1Cc2cc(OCCc3coc(/C(C)=C/CCC)n3)ccc2C[C@H]1C(=O)O` (stereo in doubt) [Reference Example 83, 2-(2,4-hexadienoyl)-7-{2-[2-(1-methyl-trans-1-penten-1-yl)oxazol-4-yl]ethoxy}-1,2,3,4-tetrahydroisoquinoline-(3S)-carboxylic Acid-tert-butylamine Salt], the “inhibitory activity (%)” value at human PTP-1B (1-321) was 82%. The compound further yielded a PPARγ activation ability in series [1] of 3.1.

In general, inhibition refers to the drop in the measured response relative to a control, in per cent. Low values mean a weak effect, high ones a strong effect. Compound `CN(CCOc1ccc(CC2SC(=O)NC2=O)cc1)c1ccccn1` (stereo not drawn) [Rosiglitazone, reference compound] displayed an inhibition at 100 µM against human PTP-1B (1-321) of less than 10%.

For `CC(C)(C)N.CC=CC=CC(=O)N1Cc2cc(OCCc3nc(/C=C/C4CCCC4)oc3C)ccc2C[C@H]1C(=O)O` (stereo in doubt) [Reference Example 22, 7-{2-[2-(trans-2-cyclopentylvinyl)-5-methyloxazol-4-yl]ethoxy}-2-(2,4-hexadienoyl)-1,2,3,4-tetrahydroisoquinoline-(3S)-carboxylic acid tert-butylamine Salt], at human PTP-1B (1-321), the “inhibitory activity (%)” value was found to be 95%. For the same compound, the PPARγ activation ability in series [1] turned out to be 5.1.
